In assay [1] the target is HEK-293 cells expressing human recombinant adenosine A2A receptor (Homo sapiens (Human), UniProt P29274). The assay is described as follows: cAMP assay, Assay 2 (Eu-cAMP tracer / ULight-anti-cAMP). It counts as cell-based. Here is the method:
The functional activity of compounds was tested using one of the two assays to detect the present of cAMP. Activation of G-protein coupled receptors (such as A2A) results in activation of adenylcyclase which converts ATP into cAMP which is used as a downstream signaling molecule. Therefore, molecules which act as GPCR (or specifically A2A receptor) antagonists cause a decrease in intracellular cAMP concentration.
Both assays used HEK-293 cells expressing human recombinant adenosine A2A receptor were grown prior to the test in media without antibiotic.
Assay 2 (Table B2-2): 100 nL of test articles at 100× of final concentration were transferred to assay plate by Echo. Cells were washed twice with 5 mL of PBS […]. After aspirating the PBS and adding 1.5 mL versine, cells were incubated at 37° C. for 2-5 min. After centrifugation, 4 mL of medium was added and adjusted cell density to 5,000 cells/well with Stimulation Buffer. 10 μL of cells were aliquoted to the assay plate, centrifuged at 1000 rpm for 1 minute, and incubated for 60 minutes at room temperature. 5 μL 4×Eu-cAMP tracer solution and 5 μL 4×Ulight™-anti-cAMP solution were added to assay plate, followed by centrifugation and 60-minute incubation at room temperature. Plates were read on EnVision.
Background: cAMP levels reflect the balance of adenylyl cyclase and phosphodiesterase activity.

Assay [2] concerns the target human adenosine A2A membrane preparation (Homo sapiens (Human), UniProt P29274). The assay is described as follows: Adenosine A2A receptor radioligand binding assay (SPA beads, 3H-SCH 58261, 384 plate). The note with it: for IC50: Table B1-2; for inhibition at 3 µM: read-out: A2a binding % inh @ 3000 nM. Here is the method: For the A2A adenosine receptor radioligand binding assay, the following modifications were made to the general protocol. GF/C filters (Perkin Elmer, 6005174), presoaked in 0.01% Brij for 2 h at room temperature were used. Filters were washed six times with 0.5 mL of ice-cold washing buffer (50 mM Tris pH 7.4) and 50 μL of Microscint 20 (Packard) was added in each well. The plates were then incubated for 15 min on an orbital shaker and then counted with a TopCount™ for 1 min/well. Another radioligand binding assay was used to evaluate the binding affinity for the adenosine A2A receptor assay was performed in duplicate in the wells of a 384 plate. Assay buffer contained DPBS 500 mM, MgCl2 0.1 mM, and 1% DMSO. Membrane-bead suspension was prepared by mixing 25.98 μL of human adenosine A2A membrane preparation (Perkin Elmer, RBHA2AM400UA) at 33.4 μg/mL, 28 μL of ADA at 20 μg/mL, and 932 μL of SPA beads at 3.33 mg/mL) and incubated the mixture for 20 min at room temperature. Mixed 20 μL of radiotracer (^3H-SCH 58261) at 15 nM to each well containing test articles at various concentrations and centrifuge the plate at 1000 rpm for 1 minute. Added 30 μL of the membraine-bead suspension to each well. Sealed the plates and incubated for 1 hr at room temperature with vigorous mixing on a plate mixer. Plates were read on Microbeta^2 (Perkin Elmer, 2450-0010).

[3] abbreviates: HEK293, read-out: A2a cAMP % inh @ 100 nM.
[4] abbreviates: HEK293, 100 nM, Assay 2, read-out: A2a cAMP % inh @ 100 nM.

SMILES strings stand for the structures. Where two headings read alike, the source gives them in different places.

One may read the IC50 as the point on the concentration scale where inhibition reaches its midpoint.

Chain of HEK-293 cells expressing human recombinant adenosine A2A receptor (P29274 whole entry): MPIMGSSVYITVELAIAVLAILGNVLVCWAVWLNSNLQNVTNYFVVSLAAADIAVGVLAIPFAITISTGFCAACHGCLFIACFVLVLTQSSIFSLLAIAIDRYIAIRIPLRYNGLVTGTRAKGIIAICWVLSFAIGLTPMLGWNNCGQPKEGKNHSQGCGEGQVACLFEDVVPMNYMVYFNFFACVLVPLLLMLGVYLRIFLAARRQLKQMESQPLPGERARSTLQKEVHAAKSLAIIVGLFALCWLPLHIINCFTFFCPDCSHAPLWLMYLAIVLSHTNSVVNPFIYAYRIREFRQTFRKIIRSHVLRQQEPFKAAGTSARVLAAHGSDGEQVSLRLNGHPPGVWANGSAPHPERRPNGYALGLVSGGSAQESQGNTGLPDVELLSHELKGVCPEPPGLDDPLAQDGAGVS
Chain of human adenosine A2A membrane preparation (P29274 whole entry): as above

For the compound `Cc1ccn(-c2nc(N)cnc2-c2cc(Cl)c3[nH]ncc3c2)n1` [Compound 1.295, 5-(7-chloro-1H-indazol-5-yl)-6-(3-methyl-1H-pyrazol-1-yl)pyrazin-2-amine], the results for the IC50 in assay [1] (Assay 2) and in assay [2] were 33 nM and 5.5 nM, respectively.

Take `Cn1ccc(-c2nc(N)cnc2-c2cc(Cl)c3ncccc3c2)n1` [Compound 1.297, 5-(8-chloroquinolin-6-yl)-6-(1-methyl-1H-pyrazol-3-yl)pyrazin-2-amine]: the IC50 in assay [1] (Assay 2) came to 47.9 nM; in assay [2], 17 nM.

Turning to `Cn1ccc(-c2nc(N)cnc2-c2cc(Cl)c3[nH]ncc3c2)n1` [Compound 1.304, 5-(7-chloro-1H-indazol-5-yl)-6-(1-methyl-1H-pyrazol-3-yl)pyrazin-2-amine], the IC50 in assay [1] (Assay 2) was 40 nM; in assay [2], 9 nM.

For `Nc1cnc(-c2cc(Cl)c3ncccc3c2)c(-n2ccccc2=O)n1` [Compound 1.308, 1-(6-amino-3-(8-chloroquinolin-6-yl)pyrazin-2-yl)pyridin-2(1H)-one], the IC50 in assay [1] (Assay 2) and in assay [2] was greater than 10000 nM in each case.

Consider `Cn1ccc(-c2nc(N)c(C#N)nc2-c2cc(Cl)c3ncccc3c2)n1` [Compound 1.309, 3-amino-6-(8-chloroquinolin-6-yl)-5-(1-methyl-1H-pyrazol-3-yl)pyrazine-2-carbonitrile], for which the figures for the IC50 in assay [1] (Assay 2) and in assay [2] were 13.1 nM and 1.6 nM, respectively.

In the case of `Cn1ccc(-c2nc(N)cnc2-c2ccc3c(=O)[nH]ccc3c2)n1` [Compound 1.315, 6-(5-amino-3-(1-methyl-1H-pyrazol-3-yl)pyrazin-2-yl)isoquinolin-1-ol], the figures for the IC50 in assay [1] (Assay 2) and in assay [2] were 1400 nM and 101 nM, respectively.

Regarding `Cc1ncc(-c2nc(N)cnc2-c2cc(Cl)c3ncccc3c2)s1` [Compound 1.318, 5-(8-chloroquinolin-6-yl)-6-(2-methylthiazol-5-yl)pyrazin-2-amine], the IC50 in assay [1] (Assay 2) was determined as 200 nM; in assay [2], 9.4 nM.

For the compound `Nc1cnc(-c2ccc3ncccc3c2)c(-c2ccccn2)n1` [Compound No. 1.25, 6-(pyridin-2-yl)-5-(quinolin-6-yl)pyrazin-2-amine], the inhibition at 0.1 µM in assay [1] (setting [3]) was 6%. In addition, the inhibition at 3 µM in assay [2] was 48%.

As to `Nc1cnc(-c2ccc3ncoc3c2)c(-c2ccccc2)n1` [Compound No. 1.35, 5-(benzo[d]oxazol-6-yl)-6-phenylpyrazin-2-amine], the inhibition at 0.1 µM in assay [1] (setting [4]) worked out at 22%. For the same compound, the inhibition at 3 µM in assay [2] is 64%.

With `Nc1cnc(-c2ccc3ncsc3c2)c(-c2ccccc2)n1` [Compound No. 1.36, 5-(benzo[d]thiazol-6-yl)-6-phenylpyrazin-2-amine], the inhibition at 0.1 µM in assay [1] (setting [4]) came out at 77%. In assay [2], the inhibition at 3 µM was found to be 81%.

On to `Cc1ccc(-c2nc(N)cnc2-c2cc(Cl)c3[nH]cnc3c2)o1` [Compound No. 1.45, 5-(7-chloro-1H-benzimidazol-5-yl)-6-(5-methylfuran-2-yl)pyrazin-2-amine], for which the inhibition at 0.1 µM in assay [1] (setting [3]) worked out at 100%. Besides, the inhibition at 3 µM in assay [2] came to 91%.

Consider `Nc1cnc(-c2ccc3ccccc3c2)c(-c2ccccc2)n1` [Compound No. 1.185, 5-(naphthalen-2-yl)-6-phenylpyrazin-2-amine], for which, in assay [1] (setting [4]), the inhibition at 0.1 µM amounted to 9%. In addition, the inhibition at 3 µM in assay [2] was found to be 20%.

Turning to `Nc1cnc(-c2ccc3c(c2)CCCN3)c(-c2ccccc2)n1` [Compound No. 1.186, 6-phenyl-5-(1,2,3,4-tetrahydroquinolin-6-yl)pyrazin-2-amine], the inhibition at 0.1 µM in assay [1] (setting [4]) was determined as 12%. The inhibition at 3 µM in assay [2] came out at 30%.

`N#Cc1nc(-c2ccc3ncsc3c2)c(-c2ccccc2)nc1N` [Compound No. 1.192, 3-amino-6-(benzo[d]thiazol-6-yl)-5-phenylpyrazine-2-carbonitrile]: the inhibition at 0.1 µM in assay [1] (setting [4]) was determined as 93%. For the same compound, in assay [2], the inhibition at 3 µM stood at 89%.

For `N#Cc1nc(-c2ccc3ncoc3c2)c(-c2ccccc2)nc1N` [Compound No. 1.193, 3-amino-6-(benzo[d]oxazol-6-yl)-5-phenylpyrazine-2-carbonitrile], the inhibition at 0.1 µM in assay [1] (setting [4]) was found to be 87%. Further, the inhibition at 3 µM in assay [2] turned out to be 83%.

Turning to `Cc1ccc(-c2nc(N)cnc2-c2ccc3ncccc3c2)s1` [Compound No. 1.210, 6-(5-methylthiophen-2-yl)-5-(quinolin-6-yl)pyrazin-2-amine], the inhibition at 0.1 µM in assay [1] (setting [4]) is 100%. Further, the inhibition at 3 µM in assay [2] amounted to 100%.

`Nc1nc(-c2ccccc2)c(-c2ccc3ncccc3c2)nc1C(=O)O` [Compound No. 1.238, 3-amino-5-phenyl-6-(quinolin-6-yl) pyrazine-2-carboxylic acid]: the inhibition at 0.1 µM in assay [1] (setting [4]) amounted to 7%. Further, in assay [2], the inhibition at 3 µM is 11%.

Consider `Nc1nc(-c2ccccc2)c(-c2ccc3ncccc3c2)nc1O` [Compound No. 1.241, 3-amino-5-phenyl-6-(quinolin-6-yl)pyrazin-2-ol], for which the inhibition at 0.1 µM in assay [1] (setting [4]) was 80%. In addition, the inhibition at 3 µM in assay [2] came to 86%.

Regarding `Nc1cnc(-c2ccc3[nH]ncc3c2)c(-c2ccccc2)n1` [Compound No. 1.270, 5-(1H-indazol-5-yl)-6-phenylpyrazin-2-amine], the inhibition at 0.1 µM in assay [1] (setting [4]) is 100%. For the same compound, in assay [2], the inhibition at 3 µM was determined as 100%.

Turning to `Cc1ccn(-c2nc(N)cnc2-c2cc(Cl)c3ncccc3c2)n1` [Compound No. 1.271, 5-(8-chloroquinolin-6-yl)-6-(3-methyl-1H-pyrazol-1-yl)pyrazin-2-amine], the IC50 stood at 50 nM in assay [1] (Assay 2) and 2.1 nM in assay [2].

On to `NC(=O)c1nc(-c2ccc3ncccc3c2)c(-c2ccccc2)nc1N` [Compound No. 1.272, 3-amino-5-phenyl-6-(quinolin-6-yl)pyrazine-2-carboxamide], for which the inhibition at 0.1 µM in assay [1] (setting [4]) is 96%. In addition, the inhibition at 3 µM in assay [2] is 80%.

Take `Cc1cccc(CNC(=O)c2nc(-c3ccc4ncccc4c3)c(-c3ccccc3)nc2N)n1` [Compound No. 1.273, 3-amino-N-((6-methylpyridin-2-yl)methyl)-5-phenyl-6-(quinolin-6-yl)pyrazine-2-carboxamide]: the IC50 in assay [1] (Assay 2) worked out at 12 nM. Further, the inhibition at 3 µM in assay [2] stood at 100%.

Consider `N#Cc1nc(-c2ccc3[nH]ncc3c2)c(-c2ccccc2)nc1N` [Compound No. 1.274, 3-amino-6-(1H-indazol-5-yl)-5-phenylpyrazine-2-carbonitrile], for which the inhibition at 0.1 µM in assay [1] (setting [4]) is 60%. Moreover, the inhibition at 3 µM in assay [2] was determined as 80%.

`Nc1nc(-c2ccccc2)c(-c2ccc3ncccc3c2)nc1N1CCOCC1` [Compound No. 1.275, 3-morpholino-6-phenyl-5-(quinolin-6-yl)pyrazin-2-amine]: in assay [1] (setting [4]), the inhibition at 0.1 µM was 0%. Moreover, in assay [2], the inhibition at 3 µM stood at 11%.

Consider `CN1CCN(c2nc(-c3ccc4ncccc4c3)c(-c3ccccc3)nc2N)CC1` [Compound No. 1.276], for which, in assay [1] (setting [4]), the inhibition at 0.1 µM amounted to 0%. The inhibition at 3 µM in assay [2] stood at 24%.

For `N#Cc1nc(-c2cc(Cl)c3[nH]cnc3c2)c(-c2ccccc2)nc1N` [Compound No. 1.277, 3-amino-6-(7-chloro-1H-benzimidazol-5-yl)-5-phenylpyrazine-2-carbonitrile], in assay [1] (setting [4]), the inhibition at 0.1 µM turned out to be 44%. In assay [2], the inhibition at 3 µM came to 83%.

For the compound `Nc1cnc(-c2cc(Cl)c3ncccc3c2)c(-c2cc3ccccc3o2)n1` [Compound No. 1.278], the IC50 in assay [1] (Assay 2) turned out to be 304 nM. Besides, the inhibition at 3 µM in assay [2] was found to be 95%.

`Nc1cnc(-c2ccc3ncccc3c2)c(-c2nccs2)n1` [Compound No. 1.279, 5-(quinolin-6-yl)-6-(1,3-thiazol-2-yl)pyrazin-2-amine]: in assay [1] (setting [4]), the inhibition at 0.1 µM was determined as 9%. Moreover, the inhibition at 3 µM in assay [2] worked out at 58%.

As for `Cc1ccn(-c2nc(N)cnc2-c2ccc3ncccc3c2)n1` [Compound No. 1.280], the inhibition at 0.1 µM in assay [1] (setting [4]) worked out at 51%. For the same compound, the inhibition at 3 µM in assay [2] worked out at 75%.

Take `Cn1ccc(-c2nc(N)cnc2-c2ccc3ncccc3c2)n1` [Compound No. 1.285, 6-(1-methyl-1H-pyrazol-3-yl)-5-(quinolin-6-yl)pyrazin-2-amine]: the inhibition at 0.1 µM in assay [1] (setting [4]) came to 34%; in assay [2] (read-out: A2a binding % inh @ 100 nM), 76%. Further, in assay [2] (read-out: A2a binding % inh @ 10 nM), the inhibition at 0.01 µM came out at 56%. For the same compound, the inhibition at 1 µM in assay [2] (read-out: A2a binding % inh @ 1000 nM) worked out at 90%.

These data come from patent US11028058B2, “Heterocyclic compounds as adenosine antagonists” (NUVATION BIO INC., priority 2017, dated 2021).
